# According to the supplement of paper PMC10307832:
# How the values were obtained:
# Assay in all cases: relative viability (nuclei count vs DMSO), 5 days (fraction); higher = more cells survive
# JZL-184 + Trametinib = compound: C1CN(CCC1C(C2=CC3=C(C=C2)OCO3)(C4=CC5=C(C=C4)OCO5)O)C(=O)OC6=CC=C(C=C6)[N+](=O)[O-] [JZL-184] + CC(=O)Nc1cccc(-n2c(=O)n(C3CC3)c(=O)c3c(Nc4ccc(I)cc4F)n(C)c(=O)c(C)c32)c1 [Trametinib] (partner 0.02 µM)
# Procedure, shortened: (§1)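 Lung cancer cell lines, seeded in 1536-well plates, were treated the following day by pin tool with a single drug or with five library-drug doses (not always all listed) in √10 steps on top of a fixed anchor-drug dose. Cells were fixed and nuclei stained in one step after 5 days, and nuclei were counted. Relative viability is the nuclei count for treated wells divided by that for vehicle wells, reported as medians of duplicate plates.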
# JZL-184 + Navitoclax = compound: C1CN(CCC1C(C2=CC3=C(C=C2)OCO3)(C4=CC5=C(C=C4)OCO5)O)C(=O)OC6=CC=C(C=C6)[N+](=O)[O-] [JZL-184] + CC1(C)CCC(c2ccc(Cl)cc2)=C(CN2CCN(c3ccc(C(=O)NS(=O)(=O)c4ccc(N[C@H](CCN5CCOCC5)CSc5ccccc5)c(S(=O)(=O)C(F)(F)F)c4)cc3)CC2)C1 [Navitoclax] (partner 0.5 µM)
# Procedure, shortened: as §1
# JZL-184 + OSI-027 = compound: C1CN(CCC1C(C2=CC3=C(C=C2)OCO3)(C4=CC5=C(C=C4)OCO5)O)C(=O)OC6=CC=C(C=C6)[N+](=O)[O-] [JZL-184] + COc1cccc2cc(-c3nc([C@H]4CC[C@H](C(=O)O)CC4)n4ncnc(N)c34)[nH]c12 [OSI-027] (partner 0.5 µM)
# Procedure, shortened: as §1
# JZL-184 + Tozasertib = compound: C1CN(CCC1C(C2=CC3=C(C=C2)OCO3)(C4=CC5=C(C=C4)OCO5)O)C(=O)OC6=CC=C(C=C6)[N+](=O)[O-] [JZL-184] + Cc1cc(Nc2cc(N3CCN(C)CC3)nc(Sc3ccc(NC(=O)C4CC4)cc3)n2)n[nH]1 [Tozasertib] (partner 0.1 µM)
# Procedure, shortened: as §1
# JZL-184 + Olaparib = compound: C1CN(CCC1C(C2=CC3=C(C=C2)OCO3)(C4=CC5=C(C=C4)OCO5)O)C(=O)OC6=CC=C(C=C6)[N+](=O)[O-] [JZL-184] + O=C(c1cc(Cc2n[nH]c(=O)c3ccccc23)ccc1F)N1CCN(C(=O)C2CC2)CC1 [Olaparib] (partner 8 µM)
# Procedure, shortened: as §1
Cell Line,relative viability (JZL-184 + Trametinib; first compound 0.04 µM),relative viability (JZL-184 + Trametinib; first compound 0.4 µM),relative viability (JZL-184 + Trametinib; first compound 1.265 µM),relative viability (JZL-184 + Trametinib; first compound 4 µM),relative viability (JZL-184 + Navitoclax; first compound 0.04 µM),relative viability (JZL-184 + Navitoclax; first compound 0.4 µM),relative viability (JZL-184 + Navitoclax; first compound 1.265 µM),relative viability (JZL-184 + Navitoclax; first compound 4 µM),relative viability (JZL-184 + OSI-027; first compound 0.04 µM),relative viability (JZL-184 + OSI-027; first compound 0.4 µM),relative viability (JZL-184 + OSI-027; first compound 1.265 µM),relative viability (JZL-184 + OSI-027; first compound 4 µM),relative viability (JZL-184 + Tozasertib; first compound 0.04 µM),relative viability (JZL-184 + Tozasertib; first compound 0.4 µM),relative viability (JZL-184 + Tozasertib; first compound 1.265 µM),relative viability (JZL-184 + Tozasertib; first compound 4 µM),relative viability (JZL-184 + Olaparib; first compound 0.04 µM),relative viability (JZL-184 + Olaparib; first compound 0.4 µM),relative viability (JZL-184 + Olaparib; first compound 1.265 µM),relative viability (JZL-184 + Olaparib; first compound 4 µM)
NCI-H2170,1.01,0.855,0.864,0.825,0.66,0.589,0.621,0.547,0.721,0.758,0.759,0.682,0.83,0.646,0.787,0.66,0.68,0.613,0.617,0.544
NCI-H2228,0.465,0.472,0.704,0.629,0.841,0.823,0.836,0.91,0.643,0.51,0.613,0.632,0.327,0.299,0.282,0.271,1.13,0.613,0.915,0.977
NCI-H2347,,0.313,0.275,0.283,0.68,0.706,0.82,0.903,0.396,0.393,0.419,0.477,0.447,0.442,0.551,0.662,,0.577,0.586,0.53
NCI-H2405,0.703,0.664,0.69,0.45,0.97,0.847,1.03,0.884,0.608,0.608,0.651,0.615,0.759,0.729,0.815,0.732,0.974,0.901,0.836,0.855
NCI-H3122,0.211,0.168,0.242,0.242,1.03,0.98,0.968,1.01,1.14,0.902,0.944,0.862,0.432,0.393,0.453,0.396,0.571,0.55,0.667,0.598
PC-3 [JPC-3],0.779,0.71,0.708,0.687,0.794,0.838,0.791,0.77,0.732,0.724,0.782,0.749,1.01,0.827,0.895,0.865,1.14,1.04,1.21,1.15
